Laboratory results taken from patent US20080193938A1, “Materials And Methods Relating To Breast Cancer Classification” (priority 2005, published 2008).

Experiments:
[1] = tested on: TuM1 module; assay: Gene set enrichment analysis of tumor module expression in tamoxifen treated MCF7 cells; format: cell-based; settings: 10 μM tamoxifen, harvested at 48 hrs; FDR=0.05
Method: MCF-7 breast cancer cells were obtained from American Type Culture Collection center (Manassas, Va.), and cells were cultured in Dulbecco's modified Eagle medium (DMEM) (Gibco, Grand Island, N.Y.) supplemented with 10% fetal bovine serum (FBS), 100 U/mL penicillin, 100 U/mL streptomycin, and 2 mM L-glutamine. Before tamoxifen treatment, cells were washed three times in PBS and maintained in phenol red free DMEM with 5% Dextran charcoal-stripped FBS (HyClone Laboratories, Pittsburgh, Pa.) for 24 hrs. Subsequently cells were treated with 10 μM tamoxifen (Sigma) and harvested at 48 hrs. Control sister cultures were treated with an equivalent volume of the vehicle (0.1% ethanol).
GSEA was used to ask if expression of the tumor module genes might be affected by tamoxifen treatment. Four control samples and two post-treatment samples (See Materials and Methods) were used for GSEA analysis. Three modules (TuM4, 5 and 6) were filtered out due to insufficient number of genes (<10) expressed in MCF7 cell lines.
The observation that TuM1 is expressed in a subset of ER+ tumors raises the possibility that expression of this module may depend, at least in some part, on ER activity and signaling. To investigate the relationship between TuM1 expression and ER signaling, we tested the responsiveness of TuM1 to ER activity using an in vitro system. […]

[2] = tested on: MCF-7 cells; assay: Tamoxifen induced apoptosis, Annexin-V flow cytometry in control and RLN2 silenced MCF-7 cells; format: cell-based; settings: 1 μM tamoxifen for 48 hrs, analyzed 72 hrs after withdrawal
Method: FIG. 13B. Flow cytometric analysis of Tamoxifen sensitivity in RLN2 silenced MCF-7 cells: RLN2 silenced and control cells were treated with 1 μm Tamoxifen or equivalent quantity of vehicle for 48 hrs and subsequently, the treatment was withdrawn. After 72 hrs, Annexin-V staining positive cells were scored in Flow cytometry, which is a measure for tamoxifen induced apoptosis.
MCF-7 cells (ATCC) were maintained in DMEM growth media supplemented with 10% fetal bovine serum (FBS), 100 U/mL penicillin, 100 U/mL streptomycin, and 2 mM L-glutamine. […] RLN2 silenced and control cells were treated with 1 μM Tamoxifen or equivalent quantity of vehicle for 48 hrs and subsequently, the treatment was withdrawn by changing the culture media to DMEM with 5% DCC. After 72 hrs, cells were trypsinized and stained with Annexin-V-Fluorescein and propidium iodide as recommended by the manufacturer (Roche) and the analyzed in Flow cytometer (Beckman-Coulter). The population of annexin-V positive cells was scored as the representation of the percentages of apoptotic cells.
To functionally investigate the association of the TuM1 signature with a tumor's response to anti-hormonal treatment, the role of a representative TuM1 gene, Relaxin2 (RLN2) was assessed in a ER+ breast cancer cellular model. […]

SMILES: CC/C(=C(\c1ccccc1)c1ccc(OCCN(C)C)cc1)c1ccccc1 [tamoxifen]
- TuM1 expression in tam-treated MCF7 cells compared to controls (GSEA) [1]: significantly downregulated
- percentage of apoptotic (annexin-V-staining positive) cells ([2]; RLN2 silenced (siRNA) MCF-7 cells): about 23%
- percentage of apoptotic (annexin-V-staining positive) cells ([2]; control MCF-7 cells): about 73%
